Test results from patent publication US9688702B2, “Alpha-amino boronic acid derivatives, selective immunoproteasome inhibitors” (Ares Trading S.A, priority 2011, dated 2017).
Counter-ions that a name gives are not always drawn.

Assays:
[1] = target: LMP7 (purified human immuno proteasome) (Homo sapiens, UniProt P28062); test: Determination of LMP7 activity (fluorescence intensity assay, Suc-LLVY-AMC); format: biochemical; conditions: for IC50: 40 μM Suc-LLVY-AMC, 37° C.
Method in brief: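 Purified human immunoproteasome (0.5 nM or 0.25 nM) preincubated 30 min at 37 °C with compounds (10 μM to 38 pM) in 50 mM Tris pH 7.4, 0.03% SDS. Suc-LLVY-AMC added at 40 μM; after 90 min at 37 °C, fluorescence read at ex 350/em 450 nm.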

[2] = target: Beta5 (purified human constitutive proteasome) (Homo sapiens, UniProt P28074); test: Determination of Beta5 activity (fluorescence intensity assay, Suc-LLVY-AMC); format: biochemical; conditions: purified human constitutive proteasome 1.0 nM, 40 μM Suc-LLVY-AMC, 37° C.
Method in brief: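 Purified human constitutive proteasome (1.0 nM) was preincubated 30 min at 37 °C with compounds (10 μM to 38 pM) in 50 mM Tris pH 7.4, 0.03% SDS. Suc-LLVY-AMC (40 μM) was then added and fluorescence (ex 350/em 450 nm) read after 90 min at 37 °C.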

[3] = purified human immuno proteasome 0.25 nM (examples 79, 80, 83, 84, 85, 87, 88, 89, 90, 91, 93, 94, 96, 97, 101 and 110)
[4] = purified human immuno proteasome 0.5 nM

| Selectivity LMP7 vs Beta5 [1] | IC50 [1, 3] [nM] | IC50 [2] [nM] | IC50 [1, 4] [nM] | Structure (SMILES) |
| --- | --- | --- | --- | --- |
| ++ (++: 10 < Selectivity < 30) | < 50 | < 50 | – | O=C(CCn1cnc2ccccc21)N[C@@H](Cc1ccc2ccccc2c1)B(O)O [Example 97, (R)-(1-(3-(1H-benzo[d]imidazol-1-yl)propanamido)-2-(naphthalen-2-yl)ethyl)boronic acid] |
| +++ (+++: Selectivity > 30) | – | 50 to 500 | < 50 | CCc1cccc(C[C@H](NC(=O)CCn2cc(-c3cccc(OC)c3)nn2)B(O)O)c1 [Example 74, (R)-(2-(3-ethylphenyl)-1-(3-(4-(3-methoxyphenyl)-1H-1,2,3-triazol-1-yl)propanamido)ethyl)boronic acid] |
| ++ (++: 10 < Selectivity < 30) | – | < 50 | < 50 | Cn1ncc2cc(C[C@H](NC(=O)CCn3c(=O)sc4ccccc43)B(O)O)ccc21 [Example 102, (R)-(2-(1-methyl-1H-indazol-5-yl)-1-(3-(2-oxobenzo[d]thiazol-3(2H)-yl)propanamido)ethyl)boronic acid] |
| + (+: Selectivity < 10) | – | 50 to 500 | < 50 | COc1ccc2occ(C[C@H](NC(=O)CCn3c(=O)sc4ccccc43)B(O)O)c2c1 [Example 109, (R)-(2-(5-methoxybenzofuran-3-yl)-1-(3-(2-oxobenzo[d]thiazol-3(2H)-yl)propanamido)ethyl)boronic acid] |
| ++ (++: 10 < Selectivity < 30) | – | < 50 | < 50 | COc1ccccc1CCC(=O)N[C@@H](Cc1coc2ccccc12)B(O)O [Example 82] |
| + (+: Selectivity < 10) | – | < 50 | < 50 | O=C(CCn1cc(-c2ccccc2)nn1)N[C@@H](Cc1csc2ccccc12)B(O)O [Example 104, (R)-(2-(benzo[b]thiophen-3-yl)-1-(3-(4-phenyl-1H-1,2,3-triazol-1-yl)propanamido)ethyl)boronic acid] |
| ++ (++: 10 < Selectivity < 30) | – | 50 to 500 | < 50 | O=C(N[C@@H](Cc1ccsc1)B(O)O)[C@H](Cc1ccccc1)Cc1cn(-c2ccccc2)nn1 [Example 62, ((R)-1-((R)-2-benzyl-3-(1-phenyl-1H-1,2,3-triazol-4-yl)propanamido)-2-(thiophen-3-yl)ethyl)boronic acid] |
| ++ (++: 10 < Selectivity < 30) | – | 500 to 5000 | 50 to 500 | O=C(CCc1noc(-c2ccccc2)n1)N[C@@H](Cc1cccc(OC(F)(F)F)c1)B(O)O [Example 60, (R)-(1-(3-(5-phenyl-1,2,4-oxadiazol-3-yl)propanamido)-2-(3-(trifluoromethoxy)phenyl)ethyl)boronic acid] |
| ++ (++: 10 < Selectivity < 30) | < 50 | < 50 | – | O=C(CCn1cnc2ccccc21)N[C@@H](Cc1coc2ccccc12)B(O)O [Example 88, (R)-(1-(3-(1H-benzo[d]imidazol-1-yl)propanamido)-2-(benzofuran-3-yl)ethyl)boronic acid] |
| +++ (+++: Selectivity > 30) | – | 50 to 500 | < 50 | O=C(CCN1CCNCC1)N[C@@H](Cc1coc2ccccc12)B(O)O [Example 92, (R)-(2-(benzofuran-3-yl)-1-(3-(piperazin-1-yl)propanamido)ethyl) boronic acid hydrochloride] |
| ++ (++: 10 < Selectivity < 30) | – | < 50 | < 50 | O=C(CCn1c(=O)sc2ccccc21)N[C@@H](Cc1csc2ccccc12)B(O)O [Example 105, (R)-(2-(benzo[b]thiophen-3-yl)-1-(3-(2-oxobenzo[d]thiazol-3(2H)-yl)propanamido)ethyl)boronic acid] |
| ++ (++: 10 < Selectivity < 30) | – | < 50 | < 50 | O=C(CCn1cnc2ccccc21)N[C@@H](Cc1csc2ccccc12)B(O)O [Example 106, (R)-(1-(3-(1H-benzo[d]imidazol-1-yl)propanamido)-2-(benzo[b]thiophen-3-yl)ethyl)boronic acid] |
| +++ (+++: Selectivity > 30) | < 50 | 50 to 500 | – | COc1ccc(CCC(=O)N[C@@H](Cc2coc3ccccc23)B(O)O)cc1 [Example 79, (R)-(2-(benzofuran-3-yl)-1-(3-(4-methoxyphenyl)propanamido)ethyl) boronic acid] |
| +++ (+++: Selectivity > 30) | – | 50 to 500 | < 50 | CCc1cccc(C[C@H](NC(=O)CCn2cc(-c3ccc(OC)cc3)nn2)B(O)O)c1 [Example 75, (R)-(2-(3-ethylphenyl)-1-(3-(4-(4-methoxyphenyl)-1H-1,2,3-triazol-1-yl)propanamido)ethyl)boronic acid] |

The remaining lines, values behind:

| Structure (SMILES) | Selectivity LMP7 vs Beta5 [1] | IC50 [1, 3] [nM] | IC50 [2] [nM] | IC50 [1, 4] [nM] |
| --- | --- | --- | --- | --- |
| CCc1cccc(C[C@H](NC(=O)[C@H](CC(=O)c2ccccc2)c2ccc(Cl)cc2)B(O)O)c1 (single isomer, unassigned) [Example 15] | +++ (+++: Selectivity > 30) | – | > 5000 | 50 to 500 |
| CCc1cccc(C[C@H](NC(=O)CCn2ncc3ccccc32)B(O)O)c1 [Example 28, ((1R)-2-(3-ethylphenyl)-1-{[3-(1H-indazol-1-yl)propanoyl]amino}ethyl)boronic acid] | ++ (++: 10 < Selectivity < 30) | – | 500 to 5000 | 50 to 500 |
| O=C(CC(C(=O)N[C@@H](Cc1ccsc1)B(O)O)c1cccc(Cl)c1)c1ccccc1 (mixture of isomers) [Example 3, [(1R)-1-{[2-(RS)-(3-chlorophenyl)-4-oxo-4-phenylbutanoyl]amino}-2-(3-thienyl)ethyl]boronic acid] | +++ (+++: Selectivity > 30) | – | > 5000 | 50 to 500 |
| COc1ccc(C(=O)C[C@@H](Cc2ccccc2)C(=O)N[C@@H](Cc2ccsc2)B(O)O)cc1 (single isomer, unassigned) [Example 25] | +++ (+++: Selectivity > 30) | – | > 5000 | 50 to 500 |
| CCc1cccc(C[C@H](NC(=O)CCn2cnc3ccccc32)B(O)O)c1 [Example 29, [(1R)-1-{[3-(1H-benzimidazol-1-yl)propanoyl]amino}-2-(3-ethylphenyl)ethyl]boronic acid] | ++ (++: 10 < Selectivity < 30) | – | 50 to 500 | < 50 |
| COc1ccc(C[C@H](NC(=O)CCc2noc(-c3ccccc3)n2)B(O)O)cc1C(F)(F)F [Example 56, (R)-(2-(4-methoxy-3-(trifluoromethyl)phenyl)-1-(3-(5-phenyl-1,2,4-oxadiazol-3-yl)propanamido)ethyl)boronic acid] | ++ (++: 10 < Selectivity < 30) | – | 500 to 5000 | 50 to 500 |
| O=C(CCn1ncc2ccccc21)N[C@@H](Cc1ccsc1)B(O)O [Example 32, [(1R)-1-{[3-(1H-indazol-1-yl)propanoyl]amino}-2-(3-thienyl)ethyl]boronic acid] | + (+: Selectivity < 10) | – | 50 to 500 | 50 to 500 |
| O=C(CCC(=O)c1cccc(-c2ccccc2)c1)N[C@@H](Cc1ccsc1)B(O)O [Example 22, [(1R)-1-[(4-biphenyl-3-yl-4-oxobutanoyl)amino]-2-(3-thienyl)ethyl]boronic acid] | ++ (++: 10 < Selectivity < 30) | – | 500 to 5000 | 50 to 500 |
| CCc1cccc(C[C@H](NC(=O)Cn2ccc3ccccc3c2=O)B(O)O)c1 [Example 42, ((1R)-2-(3-ethylphenyl)-1-{[(1-oxoisoquinolin-2(1H)-yl)acetyl]amino}ethyl)boronic acid] | ++ (++: 10 < Selectivity < 30) | – | 500 to 5000 | 50 to 500 |
| CCc1cccc(C[C@H](NC(=O)CCc2cn(-c3ccccc3)nn2)B(O)O)c1 [Example 58, (R)-(2-(3-ethylphenyl)-1-(3-(1-phenyl-1H-1,2,3-triazol-4-yl)propanamido)ethyl)boronic acid] | +++ (+++: Selectivity > 30) | – | > 5000 | 50 to 500 |
| CCc1cccc(C[C@H](NC(=O)CCn2nnc3ccccc32)B(O)O)c1 [Example 31, [(1R)-1-{[3-(1H-1,2,3-benzotriazol-1-yl)propanoyl]amino}-2-(3-ethylphenyl)ethyl]boronic acid] | ++ (++: 10 < Selectivity < 30) | – | 50 to 500 | < 50 |
| CCc1cccc(C[C@H](NC(=O)CCC(=O)c2ccc(OC)cc2OC)B(O)O)c1 [Example 11, [(1R)-1-{[4-(2,4-dimethoxyphenyl)-4-oxobutanoyl]amino}-2-(3-ethylphenyl)ethyl]boronic acid] | +++ (+++: Selectivity > 30) | – | > 5000 | 50 to 500 |
| O=C(CCn1cnc2ccccc21)N[C@@H](Cc1cccc(OC(F)(F)F)c1)B(O)O [Example 59, (R)-(1-(3-(1H-benzo[d]imidazol-1-yl)propanamido)-2-(3-(trifluoromethoxy)phenyl)ethyl)boronic acid] | + (+: Selectivity < 10) | – | 50 to 500 | < 50 |
| COc1ccccc1C(=O)CCC(=O)N[C@@H](Cc1ccsc1)B(O)O [Example 12, [(1R)-1-{[4-(2-methoxyphenyl)-4-oxobutanoyl]amino}-2-(3-thienyl)ethyl]boronic acid] | – | – | > 5000 | 500 to 5000 |
